Legend:
ICR mice = test: Toxicity of orally administered NG5006 in mice; assay type: in vivo, mouse; conditions: single oral dose 1, 2 and 4 g/kg
Method: 4 week-old, specific pathogen-free ICR female mice(12 heads) and male mice(12 heads) were bred under a condition of temperature 22±3° C., moisture 55±10% and photoperiod 12L/12D. Fodder(Cheiljedang Co., mouse and rat fodder) and water were sterilized and fed to the mice.
NG5006 was dissolved in 0.5% Tween 80 to a concentration of 100 mg/ml. The solution thus obtained was orally administered to the mice in amounts of 0.2 ml(1 g/kg), 0.4 ml(2 g/kg) and 0.8 ml(4g/kg) per 20 g of mouse body weight, respectively. […] The weight changes of the mice were recorded every day to examine the effect of NG5006. Further, on the 7th day, the mice were sacrificed and the internal organs were visually examined.

[1] = tested on: New Zealand White rabbits; test: Fatty streak in the main artery of cholesterol-fed rabbits; assay type: in vivo, rabbit
Method: (§1) 22 three-month-old New Zealand White rabbits(Yeonam Horticulture and Animal Husbandry College, Korea) each weighing about 2.0 to 2.3 kg were bred under a condition of temperature 20±2° C., relative humidity 55±10%, and photoperiod 12L/12D. The rabbits were divided two groups of 6 rabbits and a group of 10 rabbits, and the rats of three groups were fed with three different diets, i.e., RC4 diet(Oriental Yeast Co., Japan) containing 1% cholesterol(Control group); 1% cholesterol plus 1 mg/kg Lovastatin® (Merck, U.S.A.)(Comparative group); and 1% cholesterol plus 0.1% NG5006, respectively. RC4 diet comprises 7.6% moisture, 22.8% crude protein, 2.8% crude fat, 8.8% crude ash, 14.4% crude cellulose and 43.6% soluble nitrogen-free substances. The rabbits were bred for 8 weeks while being allowed free access to the diets and water.
The rabbits bred in Step 1 were sacrificed and their chest were incised. The main artery was cut out therefrom in a length of about 5 cm downward from the site 1 cm above the aortic valve and the fat surrounding the main artery was removed. The main artery was incised in the middle along the longitudinal axis and fixed in 10% neutral buffered formalin for 24 hours, and then, pinned to a dish. The moist artery was photographed and, then, staining of fatty streak was carried out in accordance with the method of Esper, E., et al. (J. Lab. Clin. Med., 121, 103-110(1993)) as follows.
A part of the incised main artery was washed three times by 2 min. with anhydrous propylene glycol and stained for 30 min. with a saturated solution of Oil Red O(ORO, Sigma Co.) dissolved in propylene glycol. Thereafter, the artery was washed twice by 3 min. with 85% propylene glycol to remove remaining staining solution and, then washed with physical saline. The artery was photographed and the photograph was traced. The area of stained legion(fatty streak legion) was determined with an image analyzer(LEICA, Q-600, Germany) and its proportion(%) to the total arterial area was calculated. The result is shown in Table V. The results were tested by student t-test by using Microsoft excel(version 7.0) program.

Sprague-Dawley rats = test: Plasma total cholesterol, HDL-cholesterol and triglyceride levels in rats fed high-cholesterol diet; assay type: in vivo, rat
Excerpt: (Step 1) Administration of NG5006 to rats
30 four-week-old white Sprague-Dawley rats (Korea Institute of Science and Technology, Korea), each weighing about 90 to 120 g, were evenly divided into three dietary groups by a randomized block design. The rats of the three groups were fed with three different high-cholesterol diets, i.e., AIN-76 laboratory animal diet(ICN Biochemicals, Cleveland, Ohio, U.S.A.) containing 1% cholesterol(Control group), 1% cholesterol plus 0.02% naringenin and 1% cholesterol plus 0.036% NG5006, respectively.
The rats were allowed to feed freely on the specified diet together with water for six weeks, the ingestion amount was recorded daily and the rats were weighed every 7 days, and then the record was analyzed. […] (Step 2) Determination of total cholesterol, HDL-cholesterol and triglyceride contents in blood
The effects of administering naringenin or NG5006 to rats on the plasma cholesterol and triglyceride contents were determined as follows.
Blood samples were taken from the rats of the three dietary groups and total cholesterol level was determined by using Sigma Diagnostic Kit Cat. No. C0534(Sigma Chemical Co., U.S.A.). HDL fractions were separated therefrom by using HDL-cholesterol reagent(Sigma Chemical Co., Cat. No. 352-1) and HDL-cholesterol level was determined by using Sigma Diagnostic Kit Cat. No. C9908(Sigma Chemical Co., U.S.A.). Triglyceride level was determined by using Sigma Diagnostic Kit Cat. No. 336-10(Sigma Chemical Co., U.S.A.).

[2] = tested on: New Zealand White rabbits; test: Abnormal fat-containing liver cells (fatty liver) in cholesterol-fed rabbits; assay type: in vivo, rabbit
Method: as §1
In order to evaluate the effects of feeding a high cholesterol diet with NG5006 on liver tissues, the liver specimens taken from the sacrificed rabbit in Step 2 of Example 14 were treated in accordance with the procedure disclosed in Fogt F. and Nanji A., Toxicology and Applied Pharmacology, 136, 87-93, 1996; and Keegan A., et al., Journal of Hepatology, 23, 591-600, 1995, and observed under a microscope to be classified into four grades, i.e., 1+(0-25%), 2+(26-50%), 3+(51-75), 4+(76-100%) based on the proportion of abnormal fat-containing cells around the central vein in the liver acinus. The results were tested by student t-test by using Microsoft excel(version 7.0) program.

[3] = 1% cholesterol plus 1 mg/kg Lovastatin or 0.1% NG5006
[4] = plasma, rats on 1% cholesterol diet plus 0.02% naringenin or 0.036% NG5006, six weeks
[5] = rats, 1% cholesterol diet, six weeks

CCCCCCCCCCCCCCCCOc1cc(O)c2c(c1)OC(c1ccc(O)cc1)CC2=O (stereo not drawn) [NG5006, Naringenin 7-O-cetyl Ether]
weight change (ICR mice; 7 day test period): no weight loss
survival (ICR mice; observed 7 days): All the mice were alive at day 7
toxicity (ICR mice; observed 7 days): no toxicity
autopsy, pathological abnormality (ICR mice; sacrificed on the 7th day): did not develop any pathological abnormality
layer on the arterial endothelium (FIGS. 1B, 1C) [1, 3]: no or very thin layers of macrophage-lipid complex
formation of fatty streak compared to the control group, in words ([1]; 1% cholesterol plus 1 mg/kg Lovastatin or 0.1% NG5006, 8 weeks): significantly inhibit the formation of fatty streak
Fatty Streak lesion (proportion of total arterial area) ([1]; 1% cholesterol plus 1 mg/kg Lovastatin or 0.1% NG5006, 8 weeks, Oil Red O staining): 12.3 ± 6.2%
HDL-C (HDL-cholesterol) (Sprague-Dawley rats; [4]): 36.7 ± 1.3 mg/dL
HDL-C/Total-C (Sprague-Dawley rats; [4]): 20.4 ± 0.7%
TG (triglyceride) (Sprague-Dawley rats; [4]): 118.4 ± 3.4 mg/dL
Total-C (total cholesterol) (Sprague-Dawley rats; [4]): 183.5 ± 6.4 mg/dL
AI: Atherosclerosis Index (AI = (Total-C − HDL-C)/HDL-C) (Sprague-Dawley rats; rats on 1% cholesterol diet plus 0.02% naringenin or 0.036% NG5006, six weeks): 4.0 ± 0.2
lowering blood lipid level, comparison in words (Sprague-Dawley rats; [5]): superior to naringenin in lowering blood lipid level
total plasma cholesterol level lower than in the Control group (Sprague-Dawley rats; [5]): 19%
triglyceride level lower than in the control group (Sprague-Dawley rats; [5]): 33%
microscopic features of the livers (FIGS. 2B, 2C) [2, 3]: almost all liver cells are of a normal shape
formation of fatty liver compared to the Control and the Lovastatin group, in words ([2]; 1% cholesterol plus 0.1% NG5006): significantly inhibits the formation of fatty liver
Proportion of abnormal fat-containing liver cells (grade) ([2]; grades 1+(0-25%), 2+(26-50%), 3+(51-75), 4+(76-100%), 1% cholesterol plus 1 mg/kg Lovastatin or 0.1% NG5006, 8 weeks): 2.2 ± 0.9
